Reference: patent US9926317B2, “Inhibitors of the renal outer medullary potassium channel” (Merck Sharp & Dohme Corp., priority 2014, dated 2018)
pIC50: −log10 of the molar value.

Target: T1, ROMK (Kir1.1) channel (Homo sapiens, UniProt P48048)
T1 sequence (P48048 1-391): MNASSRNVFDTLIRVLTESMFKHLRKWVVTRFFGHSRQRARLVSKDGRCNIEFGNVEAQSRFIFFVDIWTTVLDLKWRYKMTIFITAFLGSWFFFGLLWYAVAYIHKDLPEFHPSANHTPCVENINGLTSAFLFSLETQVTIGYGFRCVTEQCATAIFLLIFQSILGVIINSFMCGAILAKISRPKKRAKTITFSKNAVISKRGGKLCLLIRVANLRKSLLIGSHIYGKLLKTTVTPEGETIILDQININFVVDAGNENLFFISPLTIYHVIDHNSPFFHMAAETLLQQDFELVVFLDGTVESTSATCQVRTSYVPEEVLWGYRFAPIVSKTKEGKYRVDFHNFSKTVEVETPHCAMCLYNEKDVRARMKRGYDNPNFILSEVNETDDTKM
Assay: Thallium Flux Assay
Assay type: cell-based
Text: The compounds of Formula I according to the invention are inhibitors of ROMK, and therefore could be used as diuretic and/or natriuretic agents. ROMK inhibitors may be used to help to increase urination and increase urine volume and also to prevent or reduce reabsorption of sodium in the kidneys leading to increased excretion of sodium and water. Therefore, the compounds could be used for treatment or prophylaxis or both of disorders that benefit from increased excretion of water and sodium from the body. Accordingly, the compounds of this invention could be used in a method for inhibiting ROMK comprising administering a compound of Formula I in a ROMK-inhibitory effective amount to a patient in need thereof. This also encompasses the use of the compounds for inhibiting ROMK in a patient comprising administering a compound of claim 1 in a therapeutically effective amount to a patient in need of diueresis, natriuresis or both. […] Moreover, this invention also relates to the use of the compounds of Formula I or salts thereof to validate in vitro assays, for example but not limited to the Thallium Flux Assay described herein.
The following Thallium Flux Assay was performed on each of the final product compounds in the Examples.
A Thallium Flux Assay was performed on the compounds of the Examples. This assay has been described previously; see, e.g., PCT Published Application WO 2013/062900.

| pIC50 | Structure (SMILES) |
| --- | --- |
| 6.75 | CC1=C(N2CCC3(CCN(CC(O)c4ccc(-n5cnnc5)cc4)CC3)C2=O)COC1=O (racemic) [Example 2, 8-(2-(4-(4H-1,2,4-triazol-4-yl)phenyl)-2-hydroxyethyl)-2-(4-methyl-5-oxo-2,5-dihydrofuran-3-yl)-2,8-diazaspiro[4.5]decan-1-one] |
| 6.61 | CC1=C(N2CCC3(CCN(CC(O)c4ccc(-n5cnnc5)nc4)CC3)C2=O)COC1=O (racemic) [Example 3, 8-(2-(6-(4H-1,2,4-triazol-4-yl)pyridin-3-yl)-2-hydroxyethyl)-2-(4-methyl-5-oxo-2,5-dihydrofuran-3-yl)-2,8-diazaspiro[4.5]decan-1-one] |
| 8.15 | CC1=C(N2CCC3(CCN(C[C@H](O)c4ccc(-n5ncnn5)cc4)CC3)C2=O)COC1=O [Example 1, (R)-8-(2-(4-(2H-tetrazol-2-yl)phenyl)-2-hydroxyethyl)-2-(4-methyl-5-oxo-2,5-dihydrofuran-3-yl)-2,8-diazaspiro[4.5]decan-1-one] |
| 8.15 | CC1=C(N2CCC3(CCN(C[C@@H](O)c4ccc(-n5ncnn5)cc4)CC3)C2=O)COC1=O [Example 4, (S)-8-(2-(4-(2H-tetrazol-2-yl)phenyl)-2-hydroxyethyl)-2-(4-methyl-5-oxo-2,5-dihydrofuran-3-yl)-2,8-diazaspiro[4.5]decan-1-one] |
| 8.52 | C[C@H]1CC2(CCN(C[C@@H](O)c3ccc(-n4ncnn4)cc3)CC2)C(=O)N1C1=CC(=O)OC1 [Example 5, (S)-8-((S)-2-(4-(2H-tetrazol-2-yl)phenyl)-2-hydroxyethyl)-3-methyl-2-(5-oxo-2,5-dihydrofuran-3-yl)-2,8-diazaspiro[4.5]decan-1-one] |
| 8.30 | C[C@H]1CC2(CCN(C[C@H](O)c3ccc(-n4ncnn4)cc3)CC2)C(=O)N1C1=CC(=O)OC1 [Example 6, (S)-8-((R)-2-(4-(2H-tetrazol-2-yl)phenyl)-2-hydroxyethyl)-3-methyl-2-(5-oxo-2,5-dihydrofuran-3-yl)-2,8-diazaspiro[4.5]decan-1-one] |
